Measured values published in patent US5891896A, “Tri-substituted phenyl derivatives useful as PDE IV inhibitors” (Celltech Therapeutics Ltd., priority 1995, dated 1999).
Structures can show the parent of a compound that is named as a salt.

Legend:
rat hepatocytes = experiment: Rat hepatocyte metabolism (compound remaining, mass spectroscopy); type: in vitro ADME
Method: (§1) 2. Rat Hepatocyte Metabolism
(§2) The quantity of compound remaining after a fixed period of time was then determined using mass spectroscopy.

human PDE IVA = target: T1, human PDE IVA (Homo sapiens, UniProt P27815); experiment: Isolated recombinant human PDE IVA enzyme, inhibition of phosphodiesterase activity ([3H]-cAMP); type: biochemical; conditions: 0.1 μM [3H]-cAMP, pH 7.5, 30° C.
T1 construct: made in house; host or cells: yeast (inducible vector)
Excerpt: 1. Isolated Recombinant Human PDE IVA Enzyme
A gene encoding human PDE IV has been cloned from human monocytes (Livi, et al., 1990, Molecular and Cellular Biology, 10, 2678). Using similar procedures we have cloned human PDE IV genes from a number of sources including eosinophils, neutrophils, lymphocytes, monocytes, brain and neuronal tissues. These genes have been transfected into yeast using an inducible vector and various recombinant proteins have been expressed which have the biochemical characteristics of PDE IV (Beavo and Reifsnyder, 1990, TIPS, 11, 150). These recombinant enzymes, particularly the human eosinophil recombinant PDE IVA, have been used as the basis of a screen for potent, selective PDE IV inhibitors.
The enzymes were purified to isoenzyme homogeneity using standard chromatographic techniques.
Phosphodiesterase activity was assayed as follows. The reaction was conducted in 150 μl of standard mixture containing (final concentrations): 50 mM 2-[[tris(hydroxymethyl)methyl]amino]-1-ethanesulphonic acid (TES) --NaOH buffer (pH 7.5), 10 mM MgCl2, 0.1 μM [^3 H]-cAMP and vehicle or various concentrations of the test compounds. […] Recovery of [^3 H]-5'AMP was determined using the [^14 C]-5'AMP and all assays were conducted in the linear range of the reaction. Results were expressed as IC50 values.

[1] = Rat hepatocyte metabolism (compound remaining, mass spectroscopy); type: in vitro ADME; conditions: rat hepatocytes, read-out: compound remaining at the end of the period
Method: as §1, §2

T1 sequence (P27815 whole entry): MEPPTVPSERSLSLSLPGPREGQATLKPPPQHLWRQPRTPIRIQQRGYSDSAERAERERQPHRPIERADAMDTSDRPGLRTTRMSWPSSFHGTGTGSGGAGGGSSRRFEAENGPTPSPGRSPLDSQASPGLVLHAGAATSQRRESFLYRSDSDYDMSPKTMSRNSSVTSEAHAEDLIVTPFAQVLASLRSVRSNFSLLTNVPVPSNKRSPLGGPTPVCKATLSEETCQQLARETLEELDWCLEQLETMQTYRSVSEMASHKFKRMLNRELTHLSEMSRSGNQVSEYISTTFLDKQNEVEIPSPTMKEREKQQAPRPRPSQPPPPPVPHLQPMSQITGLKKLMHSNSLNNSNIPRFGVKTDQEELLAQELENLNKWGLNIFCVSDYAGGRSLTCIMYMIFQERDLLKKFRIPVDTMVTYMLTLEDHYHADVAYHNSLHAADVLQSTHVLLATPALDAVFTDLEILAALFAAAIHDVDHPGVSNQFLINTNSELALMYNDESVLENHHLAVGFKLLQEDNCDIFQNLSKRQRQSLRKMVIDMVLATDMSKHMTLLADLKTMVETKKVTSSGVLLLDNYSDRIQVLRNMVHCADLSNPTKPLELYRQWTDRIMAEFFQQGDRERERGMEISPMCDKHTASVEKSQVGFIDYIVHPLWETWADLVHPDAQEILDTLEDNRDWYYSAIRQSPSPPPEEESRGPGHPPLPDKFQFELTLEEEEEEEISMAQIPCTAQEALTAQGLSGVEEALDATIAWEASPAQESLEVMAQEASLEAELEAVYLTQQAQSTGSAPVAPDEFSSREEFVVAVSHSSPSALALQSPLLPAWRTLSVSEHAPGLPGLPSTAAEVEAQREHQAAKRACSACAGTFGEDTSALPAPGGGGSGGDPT

Row | Compound | metabolism after 3 h (in words) (rat hepatocytes) | compound remaining at the end of the period (rat hepatocytes; 3 h) [%] | IC50 (human PDE IVA) [nM] | remaining at 3 h [1] [%]
1 | (R)-N-[4-{1-(3-(2-Indanyloxy)-4-methoxyphenyl)-2-(4-pyridyl)ethyl}phenyl]-N'-ethylurea hydrochloride [Example 3] | substantially unmetabolised | ≥ 80 | 34 | 
2 | COc1ccc([C@H](Cc2ccncc2)c2cccc(NS(=O)(=O)c3ccccc3)c2)cc1OC1Cc2ccccc2C1 [Example 2, hydrochloride] | substantially unmetabolised |  | 2 | ≥ 80
